Test results published in PMC12040169 (PLOS Biology, 2025).

Test: in vitro
Details: human, hela cells, % viability

Structure (SMILES)	viability at 28.5 h, 10 µM [%]
CN(CC(=O)Nc1sc2c(c1C#N)CCCC2)Cc1cnn(C)c1 [CBK304618]	92.8
COCCNC(=O)c1cnn2c(C)c(Cc3ccccc3C)c(C)nc12 [CBK160253]	94.5
O=C(CSc1nc2ccccc2[nH]1)n1c2c(c3ccccc31)CCCC2 [CBK263945]	92.8
COc1cc(C)c(Nc2cccc(/C=C/c3ccccc3)n2)cc1OC [CBK037725]	102
CN(CC(=O)NCc1ccc(OCC(N)=O)cc1)C1CCCCC1 [CBK306331]	81.7
O=C(NCc1ccccc1OC1CCNC1)c1ccc(-c2cccc(C(F)(F)F)c2)o1 (stereo not shown) [CBK034151T]	101
Cc1ccc(S(=O)(=O)n2ccc3ccc(N4CCN(C)CC4)nc32)cc1 [CBK063327]	84
COc1ccc(C)c2sc(NC(=O)c3sc(C)nc3C)nc12 [CBK287401]	74
CCc1c(C)nc2ccccc2c1SCCOC(=O)Nc1ccccc1 [CBK155466T]	85.6
Oc1ccccc1/C=N/Nc1nnc(-c2ccccc2)c(-c2ccccc2)n1 [CBK262003]	93
N#Cc1cccc(C(=O)NCCc2nnc3n2CCCCC3)c1 [CBK259813]	105
CN(C)CCCn1nc2n(c1=O)-c1ccccc1SC(c1ccccc1)C2 (stereo not shown) [CBK016063]	105
O=C(Nc1ccc(Br)cc1C(=O)O)c1cccs1 [CBK066822]	86.8
CCOC(=O)c1ccsc1NC(=O)C1CC=CCC1C(=O)O (stereo not shown) [CBK270291]	97.5
O=[N+]([O-])c1cccc(-c2ccc(OC3CCNCC3)cc2)c1 [CBK126465T]	98.8
Cc1ccc(NS(=O)(=O)c2cc(C(=O)N3CCN(C)CC3)ccc2C)cc1 [CBK268577]	92.5
O=C(c1ccccc1NS(=O)(=O)c1ccc(C(F)(F)F)cc1[N+](=O)[O-])N1CCOCC1 [CBK043353]	84.4
CC1CC1C(=O)N(C)C1CCN(c2ncnc3ccccc23)CC1 (stereo not shown) [CBK304972]	83.3
Cc1cc(OCC(=O)N2CCN(c3ccccc3F)CC2)no1 [CBK305898]	87.1
O=C(O)CC1CCC2(CC1)Cc1ccccc1C2 [CBK012397]	89.8
COCc1ccc(Nc2ccccc2S(=O)(=O)c2ccccc2)cc1OCC1CCN(C(=O)OC(C)(C)C)CC1 [CBK175577]	94.6
CCS(=O)(=O)NC1CCN(c2nc(C(F)(F)F)nc3ccsc23)CC1 [CBK304593]	108

Structure (SMILES)	viability at 28.5 h, 10 µM [%]
Cc1onc(-c2ccccc2)c1CNC(=O)c1ccc(OC(F)(F)F)cc1 [CBK144080]	97.9
O=C(CN(c1ccc(Cl)cc1)S(=O)(=O)c1ccccc1)Nc1ccc(F)cc1 [CBK264013]	90.5
CC1(C)Cc2ccccc2C(NCCC(=O)O)=N1 [CBK023412]	97.9
CC(=O)N1CCCC1C(=O)N1CC(C(=O)Nc2nc3c(C)cc(C)cc3s2)C1 (stereo not shown) [CBK286039]	86
Clc1ccc(OC/C=C2\Oc3ccc(Cl)cc3C2N2CCOCC2)c(Cl)c1 (stereo not shown) [CBK262753]	94.5
O=[N+]([O-])c1ccc(CN2CCC(Oc3nccnc3OCc3ccc(Cl)c(Cl)c3)CC2)cc1 [CBK083107T]	104
CCNC(=O)NC(=O)C1CCN(CCc2ccc(O)c(OC)c2)CC1 [CBK035184]	102
Cc1cc(C(=O)N2CCn3cc(C(F)(F)F)nc3C2)on1 [CBK282430]	101
O=C(NC(c1ccc2c(c1)CCO2)[C@H]1C[C@@H](O)C1)c1c[nH]c(=O)c(Cl)c1 (stereo partly shown) [CBK306634]	95
Cc1cccc(-c2noc([C@@H]3C[C@@H](O)CN3Cc3ccccn3)n2)c1 [CBK288837]	98.2
Cc1c(C)n(Cc2cccnc2)c2ncn(C3CCCCCC3)c(=N)c12 [CBK287932]	85.9
CC(C)C(=O)Nc1nc2c([nH]c(=O)n2[C@H]2C[C@@H](O)[C@@H](CO)O2)c(=O)[nH]1 [CBK201202]	98.4
CC(=O)c1ccc(NC(=O)CC2SC(=N)NC2=O)cc1 (stereo not shown) [CBK265625]	83.9
COc1cccc(N2CCN(CCCOc3ccc(F)cc3)CC2)n1 [CBK010355F]	94.6
O=C1CC(c2ccc(C(=O)O)cc2)c2sccc2N1 (stereo not shown) [CBK287119]	91.9
CCc1ccc(NC(=O)CN2CCN(c3ccccc3F)CC2)cc1 [CBK307549]	112
Ic1cnn(Cc2nc(-c3ccccc3)no2)c1 [CBK269901]	90.3
CN(C)CCN(C)C(=O)c1ccc(-c2ccccc2)nc1N(C)C [CBK106070]	88.1
O=C(O)c1ccc(COc2ccc(/C=C3\SC(=S)N(Cc4cccnc4)C3=O)cc2)cc1 [CBK264637]	101
Cc1cccc(C)c1-c1cn2ccnc2c(NC2CCOCC2)n1 [CBK037311]	91.6
CCc1ccc(C(=O)NCCCN2CCOCC2)cc1 [CBK268144]	104
CN1C(=O)COc2ccccc2CCCC[C@@H]2[C@H]1CCCN2CCO [CBK292112]	103

Structure (SMILES)	viability at 28.5 h, 10 µM [%]
O=c1oc2ccccc2c(NCCN2CCCCC2)c1[N+](=O)[O-] [CBK218805]	92
COC(=O)c1ccc(CN2CCC(Oc3nccnc3OCc3ccc(Cl)c(Cl)c3)CC2)o1 [CBK153782]	84.2
O=C(NCCN1CCC(O)(c2cccc(F)c2)CC1)C1CC=CCC1 (stereo not shown) [CBK282451]	101
COc1nccnc1OC1CCN(Cc2ccccc2)CC1 [CBK084238]	103
CCc1cc(CNS(=O)(=O)c2cc(C)ccc2F)on1 [CBK283064]	108
Cc1ccc(NC(=O)c2cnc3ccccc3c2)c(C)n1 [CBK200290]	99.1
COc1cc([C@@]23CC[C@@H](NC(=O)Nc4cccc(Cl)c4)C[C@@H]2N(C)CC3)cc(OC)c1OC [CBK039212]	93.7
CN1C(=O)CC2(C1=O)C(=O)N(CCCOc1ccc(F)cc1)c1ccccc12 (stereo not shown) [CBK075513]	108
CCCOc1ccc(C(CC(=O)O)NS(=O)(=O)c2ccc(F)cc2)cc1 (stereo not shown) [CBK287139]	102
Cc1cc(C)c(C#N)c(N2CCOC3(CCN(C(=O)OCc4ccccc4)CC3)C2)n1 [CBK161114T]	91
CC(Cc1cccs1)NC(=O)c1cccc(-n2cnnc2)c1 (stereo not shown) [CBK282443]	102
O=C(O)c1ccccc1C(=O)c1ccc(Oc2ncc(C(F)(F)F)cc2Cl)cc1 [CBK161648]	106
O=C(c1ccccn1)N1C2CCC1CC(O)(c1ccco1)C2 (stereo not shown) [CBK284034]	87
NC(=O)CC1C(=O)N(c2ccc(F)cc2)C(=O)N1NC(=O)CCc1ccccc1 (stereo not shown) [CBK269033]	104
CC(C)(C)N=C1c2nn(Cc3ccccc3)nc2C(=NC(C)(C)C)c2nn(Cc3ccccc3)nc21 [CBK261070]	103
O=S(=O)(c1ccc(OC(F)(F)F)cc1)N1CCN(Cc2ccc3c(c2)OCO3)CC1 [CBK200040]	82.5
c1ccc2c(c1)CCC(CNCCN1CCOCC1)O2 (stereo not shown) [CBK023956G]	94
Cn1ccnc1C1(O)CCN(C(=O)CC2CCCCC2)CC1 [CBK283647]	97.2
CCOC(=O)c1[nH]c2ccccc2c1NC(=O)c1c(F)ccc(Cl)c1F [CBK160141]	120
Cc1ccc(-c2cc(C(=O)O)[nH]n2)cc1 [CBK265462]	101
O=C(NCc1cccnc1)c1ncoc1-c1cccs1 [CBK283974]	87.5
O=C1CC2(CCN(S(=O)(=O)Cc3ccc(Cl)cc3)CC2)CN1 [CBK283355]	102

Structure (SMILES)	viability at 28.5 h, 10 µM [%]
CC(Nc1cccc2ccccc12)C(=O)N/N=C/c1c(O)ccc2ccccc12 (stereo not shown) [CBK262678]	97.5
CC(C)(C)NC(=O)c1nn2c(c1Br)NC(c1cccs1)CC2C(F)(F)F (stereo not shown) [CBK307175]	84.9
O=C(Nc1nn[nH]n1)C1CCCCC1 [CBK027955]	112
CCCCc1nc(CS(=O)(=O)C(C)c2nc(C(C)C)no2)cs1 (stereo not shown) [CBK305707]	88.3
CCOc1ccc2c(c1)CN(CC(=O)Nc1cc(C)no1)CC2 [CBK305993]	92.9
O=S(=O)(NCC(c1ccccc1)n1cc(-c2ccccc2)nn1)c1ccccc1 (stereo not shown) [CBK268244]	85.2
CN(C)CCNCc1ccc(-c2cccc(C(=O)O)c2)o1 [CBK287250]	89.9
COC(=O)Nc1ccc(S(=O)(=O)Oc2ccc(C)cc2-n2nc3ccccc3n2)cc1 [CBK262183]	89.3
CCc1c(C)c2cc(Cl)c(O)c(CN3CCCC3)c2oc1=O [CBK267099]	105
CC[C@@H]1COCCN1C(=O)c1sc2ccccc2c1Cl [CBK103641]	90.3
O=C(CCn1c(C(F)F)cc2cccnc21)NCc1ccccn1 [CBK285068]	100
COc1ccc2c(c1)c(C(=O)N1CCn3nc(CO)cc3C1)c(C)n2C [CBK306764]	88.5
COc1ccc([C@@]23CC[C@@H](NC(=O)Nc4cccc(-c5nn[nH]n5)c4)C[C@@H]2N(C)CC3)cc1OC [CBK051273T]	87.8
CCn1cc(CN2CCC(O)(c3ccc(C)cc3)CC2)c(C)n1 [CBK282955]	89.2
CCN(Cc1ccccc1)C(=O)Nc1ccc2[nH]ccc2c1 [CBK155229]	95.2
Cc1csc(C(Cc2cccs2)NC(=O)C2CCOCC2)n1 (stereo not shown) [CBK285006]	89.2
CN(C)Cc1cc(C[C@@H]2C[C@H](NCc3ccccn3)C2(C)C)no1 [CBK289313]	92.3
C=CCn1ncc(CN2CCC3(O)CCCCC3C2)c1C (stereo not shown) [CBK283029]	100
COc1ccc(OC(C)C(=O)Nc2cc3oc4ccccc4c3cc2OC)cc1 (stereo not shown) [CBK266751]	100
c1csc(-c2cnc3ccccc3n2)c1 [CBK020525]	93.2
O=S1(=O)C=C(N2CCCCCC2)CC1 [CBK025571C]	85.7

Same assay, conditions: human, hela cells, % viability, bulk resorufin, single well

Structure (SMILES)	viability at 28.5 h, 10 µM [%]
O=C(Nc1ccc2c(c1)OC(F)(F)O2)c1nn(Cc2ccc(-c3csnn3)cc2)c2ccccc12 [CBK047877]	86.8
